Experimental data taken from patent publication US20240058464A1 (Fortis Therapeutics, Inc., priority 2021, published 2024).
Where a SMILES comes first, the peptide text is derived from it. [ ]: non-standard residue; d: D form. The star is where a group is joined. dPhe(4-NHCONH2) = NC(=O)Nc1ccc(C[C@@H](N)C(=O)O)cc1; Dihydroorotyl(S) = O=C1C[C@@H](C(=O)*)NC(=O)N1; dPhe(4-Cl) = N[C@H](Cc1ccc(Cl)cc1)C(=O)O; Phe(4-NH2) = Nc1ccc(C[C@H](N)C(=O)O)cc1; d2Nal = N[C@H](Cc1ccc2ccccc2c1)C(=O)O; Lys(iPr) = CC(C)NCCCC[C@H](N)C(=O)O; d3Pal = N[C@H](Cc1cccnc1)C(=O)O

System: CD46 expression
Assay: CD46 expression by RNA-sequencing in unpaired pre-treatment and post-treatment tumor biopsies
Assay type: in vivo, human
[1] = Breast Cancer, post minus pre, unpaired biopsies
[2] = Breast Cancer, post vs pre, unpaired biopsies
[3] = Breast Cancer, post-treatment biopsies, log2-transformed RNA-seq counts
[4] = Non-Small Cell Lung Cancer, Post minus Pre, unpaired biopsies, log2-transformed counts
[5] = Non-Small Cell Lung Cancer, post- vs pre-treatment unpaired biopsies
[6] = Non-Small Cell Lung Cancer, post-treatment biopsies, unpaired, RNA-seq log2-transformed normalized counts
[7] = Clear Cell Renal Cell Carcinoma, post minus pre, unpaired biopsies
[8] = Clear Cell Renal Cell Carcinoma, post vs pre, unpaired biopsies
[9] = Clear Cell Renal Cell Carcinoma, post-treatment biopsies, log2-transformed RNA-seq counts
[10] = Melanoma, Post minus Pre, unpaired biopsies, log2-transformed counts
[11] = Melanoma, post- vs pre-treatment unpaired biopsies
[12] = Melanoma, post-treatment biopsies, unpaired, RNA-seq log2-transformed normalized counts
[13] = Endocrine Tumor, Post minus Pre, unpaired biopsies, log2-transformed counts
[14] = Endocrine Tumor, post- vs pre-treatment unpaired biopsies
[15] = Endocrine Tumor, post-treatment biopsies, unpaired, RNA-seq log2-transformed normalized counts
[16] = Sarcoma, Post minus Pre, unpaired biopsies, log2-transformed counts
[17] = Sarcoma, post- vs pre-treatment unpaired biopsies
[18] = Sarcoma, post-treatment biopsies, unpaired, RNA-seq log2-transformed normalized counts
[19] = Breast Cancer, Post minus Pre, unpaired biopsies, log2-transformed counts
[20] = Breast Cancer, post- vs pre-treatment unpaired biopsies
[21] = Breast Cancer, post-treatment biopsies, unpaired, RNA-seq log2-transformed normalized counts
[22] = Colorectal Cancer, Post minus Pre, unpaired biopsies, log2-transformed counts
[23] = Colorectal Cancer, post- vs pre-treatment unpaired biopsies
[24] = Colorectal Cancer, post-treatment biopsies, unpaired, RNA-seq log2-transformed normalized counts
[25] = Bladder Cancer, post minus pre, unpaired biopsies
[26] = Bladder Cancer, post vs pre, unpaired biopsies
[27] = Bladder Cancer, post-treatment biopsies, log2-transformed RNA-seq counts

Compound: CCN1CCN(Cc2ccc(Nc3ncc(F)c(-c4cc(F)c5nc(C)n(C(C)C)c5c4)n3)nc2)CC1 [abemaciclib]
- CD46 expression diff [1]: −0.15
- CD46 expression Percentage change [2]: −2.4%
- CD46 expression Post [3]: 6.33

Compound: CN(C)C/C=C/C(=O)Nc1cc2c(Nc3ccc(F)c(Cl)c3)ncnc2cc1O[C@H]1CCOC1 [afatinib]
- CD46 expression diff [4]: 0.11
- CD46 expression Percentage change [5]: 1.7%
- CD46 expression Post [6]: 6.43

Compound: CCc1cc2c(cc1N1CCC(N3CCOCC3)CC1)C(C)(C)c1[nH]c3cc(C#N)ccc3c1C2=O [alectinib]
- CD46 expression diff [4]: −0.03
- CD46 expression Percentage change [5]: −0.5%
- CD46 expression Post [6]: 6.18

Compound: CNC(=O)c1ccc(N2C(=S)N(c3cnc(C#N)c(C(F)(F)F)c3)C(=O)C23CCC3)cc1F [apalutamide]
- CD46 expression diff (Prostate Cancer, Post minus Pre, unpaired biopsies, log2-transformed counts): −0.03
- CD46 expression Percentage change (Prostate Cancer, post- vs pre-treatment unpaired biopsies): −0.5%
- CD46 expression Post (Prostate Cancer, post-treatment biopsies, unpaired, RNA-seq log2-transformed normalized counts): 6.14

Compound: CNC(=O)c1ccccc1Sc1ccc2c(/C=C/c3ccccn3)n[nH]c2c1 [axitinib]
- CD46 expression diff [7]: −0.29
- CD46 expression Percentage change [8]: −5.1%
- CD46 expression Post [9]: 5.43

Compound: COc1cc2nccc(Oc3ccc(NC(=O)C4(C(=O)Nc5ccc(F)cc5)CC4)cc3)c2cc1OC [cabozantinib]
- CD46 expression diff (Clear Cell Renal Cell Carcinoma, Post minus Pre, unpaired biopsies, log2-transformed counts): −0.12
- CD46 expression Percentage change (Clear Cell Renal Cell Carcinoma, post- vs pre-treatment unpaired biopsies): −2.1%
- CD46 expression Post (Clear Cell Renal Cell Carcinoma, post-treatment biopsies, unpaired, RNA-seq log2-transformed normalized counts): 5.44

Compound: C[C@@H](Oc1cc(-c2cnn(C3CCNCC3)c2)cnc1N)c1c(Cl)ccc(F)c1Cl [crizotinib]
- CD46 expression diff [4]: 0.16
- CD46 expression Percentage change [5]: 2.7%

Compound: CC(C)(C)c1nc(-c2cccc(NS(=O)(=O)c3c(F)cccc3F)c2F)c(-c2ccnc(N)n2)s1 [dabrafenib]
- CD46 expression diff [10]: 0.11
- CD46 expression Percentage change [11]: 2.0%
- CD46 expression Post [12]: 5.42

Compound: CC(=O)N[C@H](Cc1ccc2ccccc2c1)C(=O)N[C@H](Cc1ccc(Cl)cc1)C(=O)N[C@H](Cc1cccnc1)C(=O)N[C@@H](CO)C(=O)N[C@@H](Cc1ccc(NC(=O)[C@@H]2CC(=O)NC(=O)N2)cc1)C(=O)N[C@H](Cc1ccc(NC(N)=O)cc1)C(=O)N[C@@H](CC(C)C)C(=O)N[C@@H](CCCCNC(C)C)C(=O)N1CCC[C@H]1C(=O)N[C@H](C)C(N)=O [degarelix] (Ac-[d2Nal][dPhe(4-Cl)][d3Pal]S[Phe(4-NH2)](Dihydroorotyl(S))[dPhe(4-NHCONH2)]L[Lys(iPr)]P[dA]-NH2)
- CD46 expression diff (Prostate Cancer, post minus pre, unpaired biopsies): −0.29
- CD46 expression Percentage change (Prostate Cancer, post vs pre, unpaired biopsies): −4.6%
- CD46 expression Post (Prostate Cancer, post-treatment biopsies, log2-transformed RNA-seq counts): 5.94
- CD46 expression Pre (Prostate Cancer, pre-treatment biopsies, log2-transformed RNA-seq counts): 6.23

Compound: C#Cc1cccc(Nc2ncnc3cc(OCCOC)c(OCCOC)cc23)c1 [erlotinib]
- CD46 expression diff [4]: −0.04
- CD46 expression Percentage change [5]: −0.6%
- CD46 expression Post [6]: 6.23

Compound: COc1cc([C@@H]2c3cc4c(cc3[C@@H](O[C@@H]3O[C@@H]5CO[C@@H](C)O[C@H]5[C@H](O)[C@H]3O)[C@H]3COC(=O)[C@H]23)OCO4)cc(OC)c1O [etoposide]
- CD46 expression diff [13]: 0.11
- CD46 expression Percentage change [14]: 2.0%
- CD46 expression Post [15]: 5.79
- CD46 expression diff [4]: 0.10
- CD46 expression Percentage change [5]: 1.7%
- CD46 expression Post [6]: 5.98
- CD46 expression diff [16]: 0.30
- CD46 expression Percentage change [17]: 6.2%
- CD46 expression Post [18]: 5.13

Compound: CO[C@H]1C[C@@H]2CC[C@@H](C)[C@@](O)(O2)C(=O)C(=O)N2CCCC[C@H]2C(=O)O[C@H]([C@H](C)C[C@@H]2CC[C@@H](OCCO)[C@H](OC)C2)CC(=O)[C@H](C)/C=C(\C)[C@@H](O)[C@@H](OC)C(=O)[C@H](C)C[C@H](C)/C=C/C=C/C=C/1C [everolimus]
- CD46 expression diff [19]: 0.09
- CD46 expression Percentage change [20]: 1.4%
- CD46 expression Post [21]: 6.46

Compound: CC(C)C[C@H](NC(=O)[C@@H](COC(C)(C)C)NC(=O)[C@H](Cc1ccc(O)cc1)NC(=O)[C@H](CO)NC(=O)[C@H](Cc1c[nH]c2ccccc12)NC(=O)[C@H](Cc1cnc[nH]1)NC(=O)[C@@H]1CCC(=O)N1)C(=O)N[C@@H](CCCNC(=N)N)C(=O)N1CCC[C@H]1C(=O)NNC(N)=O [goserelin]
- CD46 expression diff [19]: 0.00
- CD46 expression Percentage change [20]: −0.1%
- CD46 expression Post [21]: 6.38

Compound: CS(=O)(=O)CCNCc1ccc(-c2ccc3ncnc(Nc4ccc(OCc5cccc(F)c5)c(Cl)c4)c3c2)o1 [lapatinib]
- CD46 expression diff [19]: −0.08
- CD46 expression Percentage change [20]: −1.2%
- CD46 expression Post [21]: 6.22

Compound: COc1cc2nccc(Oc3ccc(NC(=O)NC4CC4)c(Cl)c3)c2cc1C(N)=O [lenvatinib]
- CD46 expression diff (Thyroid Cancer, Post minus Pre, unpaired biopsies, log2-transformed counts): −0.02
- CD46 expression Percentage change (Thyroid Cancer, post- vs pre-treatment unpaired biopsies): −0.4%
- CD46 expression Post (Thyroid Cancer, post-treatment biopsies, unpaired, RNA-seq log2-transformed normalized counts): 5.82

Compound: N[C@@H](Cc1cc(I)c(Oc2cc(I)c(O)c(I)c2)c(I)c1)C(=O)O [levothyroxine]
- CD46 expression diff (Non-Small Cell Lung Cancer, post minus pre, unpaired biopsies): −0.17
- CD46 expression Percentage change (Non-Small Cell Lung Cancer, post vs pre, unpaired biopsies): −2.9%
- CD46 expression Post (Non-Small Cell Lung Cancer, post-treatment biopsies, log2-transformed RNA-seq counts): 5.87

Compound: O=S(=O)(O)CCS [mesna]
- CD46 expression diff (Sarcoma, post minus pre, unpaired biopsies): −0.16
- CD46 expression Percentage change (Sarcoma, post vs pre, unpaired biopsies): −3.2%
- CD46 expression Post (Sarcoma, post-treatment biopsies, log2-transformed RNA-seq counts): 4.88

Compound: CN(C)C(=N)N=C(N)N [metformin]
- CD46 expression diff [22]: 0.27
- CD46 expression Percentage change [23]: 4.2%
- CD46 expression Post [24]: 6.70
- CD46 expression diff [4]: 0.03
- CD46 expression Percentage change [5]: 0.5%
- CD46 expression Post [6]: 6.07

Compound: CN(Cc1cnc2nc(N)nc(N)c2n1)c1ccc(C(=O)N[C@@H](CCC(=O)O)C(=O)O)cc1 [methotrexate]
- CD46 expression diff [25]: −0.25
- CD46 expression Percentage change [26]: −4.0%
- CD46 expression Post [27]: 5.88
- CD46 expression diff [19]: 0.07
- CD46 expression Percentage change [20]: 1.2%
- CD46 expression Post [21]: 6.32

Compound: C[C@H]1C[C@@H]2[C@H]([C@@H](O)C[C@@]3(C)[C@H]2CC[C@]3(O)C(=O)CO)[C@@]2(C)C=CC(=O)C=C12 [methylprednisolone]
- CD46 expression diff [19]: 0.31
- CD46 expression Percentage change [20]: 5.0%
- CD46 expression Post [21]: 6.49
- CD46 expression diff [4]: −0.04
- CD46 expression Percentage change [5]: −0.6%
- CD46 expression Post [6]: 6.16

Compound: CO[C@@]12[C@H](COC(N)=O)C3=C(C(=O)C(C)=C(N)C3=O)N1C[C@@H]1N[C@@H]12 [mitomycin]
- CD46 expression diff [22]: 0.23
- CD46 expression Percentage change [23]: 3.9%
- CD46 expression Post [24]: 5.93

Compound: NC(=O)c1cccc2cn(-c3ccc([C@@H]4CCCNC4)cc3)nc12 [niraparib]
- CD46 expression Percentage change (in vivo): 0.1%
- CD46 expression Post (in vivo): 5.72
- CD46 expression diff (in vivo): 0.00

Compound: C[C@@H](O)[C@@H]1NC(=O)[C@H](CCCCN)NC(=O)[C@@H](Cc2c[nH]c3ccccc23)NC(=O)[C@H](Cc2ccccc2)NC(=O)[C@@H](NC(=O)[C@H](N)Cc2ccccc2)CSSC[C@@H](C(=O)N[C@H](CO)[C@@H](C)O)NC1=O [octreotide]
- CD46 expression diff [13]: −0.05
- CD46 expression Percentage change [14]: −0.9%
- CD46 expression Post [15]: 5.59

Compound: Cc1ccc(Nc2nccc(N(C)c3ccc4c(C)n(C)nc4c3)n2)cc1S(N)(=O)=O [pazopanib]
- CD46 expression diff [7]: −0.22
- CD46 expression Percentage change [8]: −4.0%
- CD46 expression Post [9]: 5.37
- CD46 expression diff [16]: −0.10
- CD46 expression Percentage change [17]: −1.9%
- CD46 expression Post [18]: 5.03

Compound: CN(C)C(=O)c1cc2cnc(Nc3ccc(N4CCNCC4)cn3)nc2n1C1CCCC1 [ribociclib]
- CD46 expression diff [1]: −0.17
- CD46 expression Percentage change [2]: −2.6%
- CD46 expression Post [3]: 6.30

Compound: COc1cc2c(cc1O)CCN[C@]21CS[C@@H]2c3c(OC(C)=O)c(C)c4c(c3[C@H](COC1=O)N1[C@@H]2[C@H]2c3c(cc(C)c(OC)c3O)C[C@@H]([C@@H]1O)N2C)OCO4 [trabectedin]
- CD46 expression diff [16]: 0.00
- CD46 expression Percentage change [17]: −0.1%
- CD46 expression Post [18]: 5.23

Compound: CC(=O)Nc1cccc(-n2c(=O)n(C3CC3)c(=O)c3c(Nc4ccc(I)cc4F)n(C)c(=O)c(C)c32)c1 [trametinib]
- CD46 expression diff [10]: 0.08
- CD46 expression Percentage change [11]: 1.4%
- CD46 expression Post [12]: 5.39

Compound: CC[C@]1(O)C[C@@H]2CN(CCc3c([nH]c4ccccc34)[C@@](C(=O)OC)(c3cc4c(cc3OC)N(C)[C@H]3[C@@](O)(C(=O)OC)[C@H](OC(C)=O)[C@]5(CC)C=CCN6CC[C@]43[C@@H]65)C2)C1 [vinblastine]
- CD46 expression diff [25]: −0.24
- CD46 expression Percentage change [26]: −3.9%
- CD46 expression Post [27]: 5.89

Compound: CC[C@]1(O)C[C@H]2CN(CCc3c([nH]c4ccccc34)[C@@](C(=O)OC)(c3cc4c(cc3OC)N(C=O)[C@H]3[C@@](O)(C(=O)OC)[C@H](OC(C)=O)[C@]5(CC)C=CCN6CC[C@]43[C@@H]65)C2)C1 [vincristine]
- CD46 expression diff [16]: −0.03
- CD46 expression Percentage change [17]: −0.5%
- CD46 expression Post [18]: 5.09
